Laboratory results from publication PMC8267945, “Plumbagin, a Natural Product with Potent Anticancer Activities, Binds to and Inhibits Dihydroorotase, a Key Enzyme in Pyrimidine Biosynthesis” (International Journal of Molecular Sciences, 2021).
pIC50: −log10 of the molar value.

Columns and labels:
4T1 cells [1] = assay: wound-healing assay; assay type: cell-based, mouse
Protocol: The wound-healing assay was performed to study whether PLU can inhibit 4T1 cell migration. Briefly, 4T1 cells were seeded in 24-well plates, incubated in serum-reduced medium for 6 h, wounded in a line across the well with a 200 μL pipette tip, and washed twice with the serum-reduced medium. After different treatments, cells were incubated for 24 h to allow migration.

KpDHOase = target: T1, KpDHOase (Klebsiella pneumoniae subsp. pneumoniae, UniProt A6T7D6); assay: rapid spectrophotometric DHOase enzyme assay (hydrolysis of DHO); assay type: biochemical, Klebsiella pneumonia; conditions: PLU 200 μM
T1 construct: made in house; host or cells: E. coli BL21(DE3)
Protocol: (§1) A rapid spectrophotometric assay was used to determine the activity of DHOase. Briefly, the hydrolysis of DHO was measured at 25 °C as the decrease in absorbance at 230 nm. The purified DHOase was added to a 2 mL solution containing 0.5 mM DHO and 100 mM Tris–HCl at pH 8.0 to start the reaction. The extinction coefficient of DHO was 0.92 mM^−1·cm^−1 at 230 nm. The hydrolysis of DHO was monitored using a UV/Vis spectrophotometer (Hitachi U 3300; Hitachi High-Technologies, Tokyo, Japan). A unit of activity was defined as the amount of enzyme catalyzing the hydrolysis of 1 μmol DHO/min, and the specific activity was expressed in terms of units of activity per mg of enzyme. The kinetic parameters Km and Vmax were determined from a nonlinear plot by fitting the hydrolyzing rate from individual experiments to the Michaelis–Menten equation (Enzyme Kinetics module of Sigma-Plot; Systat Software, Chicago, IL, USA).

huDHOase = target: T2, huDHOase (Homo sapiens, UniProt P27708); assay: as above; assay type: biochemical; conditions: 200 μM compound in the standard assay
T2 construct: huDHOase1456-1846-NdeI-N; made in house; host or cells: E. coli BL21(DE3)
T2 sequence (P27708 1456-1846): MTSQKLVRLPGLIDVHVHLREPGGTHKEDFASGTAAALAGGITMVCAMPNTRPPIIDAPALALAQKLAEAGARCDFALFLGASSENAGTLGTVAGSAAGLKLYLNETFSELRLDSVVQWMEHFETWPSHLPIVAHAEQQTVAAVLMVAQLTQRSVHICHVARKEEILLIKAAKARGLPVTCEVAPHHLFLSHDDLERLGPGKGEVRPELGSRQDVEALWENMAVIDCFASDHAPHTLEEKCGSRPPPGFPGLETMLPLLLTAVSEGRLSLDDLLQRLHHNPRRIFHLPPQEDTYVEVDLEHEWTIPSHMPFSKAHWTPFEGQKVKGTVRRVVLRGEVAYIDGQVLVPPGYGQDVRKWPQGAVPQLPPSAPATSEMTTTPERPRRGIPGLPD
Protocol: as §1, with “The extinction coefficient of DHO was 0.92 mM^−1·cm^−1 at 230 nm.” left out

4T1 cells [2] = assay: clonogenic formation assay; assay type: cell-based, mouse
Protocol: A clonogenic formation assay was used to assess the 4T1 cell growth to study whether the PLU can inhibit 4T1 cell proliferation. Briefly, 4T1 cells were seeded at a density of 10^3 cells per well into 6-well plates and incubated overnight for attachment. After different treatments, plates were incubated for 5–7 days to allow clonogenic growth. After washing with PBS, colonies were fixed with methanol and stained with 0.5% crystal violet for 20 min, and the number of colonies was counted under a light microscope.

tumor growth = conditions: cited from earlier work
StDHOase = target: T3, StDHOase (Salmonella typhimurium, UniProt P06204); assay: rapid spectrophotometric DHOase enzyme assay (hydrolysis of DHO); assay type: biochemical, Salmonella enterica serovar Typhimurium LT2; conditions: PLU 200 μM
T3 construct: made in house; host or cells: E. coli BL21(DE3)
Protocol: as §1

DHPase = target: DHPase; parameters: method as in PMID 32147511; conditions: cited from earlier work
4T1 cells [3] = assay: chromatin condensation assay (Hoechst staining); assay type: cell-based, mouse
Protocol: The apoptosis in 4T1 cells was assayed with Hoechst 33342 staining. The 4T1 cells were seeded in 6-well plates at a density of 5 × 10^5 cells per well in a volume of […] of culture medium. Cells were allowed to adhere for 16 h. After different treatments, cells were incubated for an additional 24 h, washed with PBS, stained with the Hoechst dye (1 μg·mL^−1) in the dark at RT for 10 min, and imaged using an inverted fluorescence microscope (Axiovert 200 M; Zeiss Axioplam, Oberkochen, Germany) at excitation and emission wavelengths (λem) of 360 and 460 nm, respectively. The apoptotic index was calculated as follows: apoptotic index = apoptotic cell number/(apoptotic cell number + nonapoptotic cell number).

in vitro = assay type: cell-based, mouse; conditions: mouse; PLU 2 μM, 4T1 cells; read-out: Death rate (cell mortality)
Protocol: (§2) The 4T1 cells (1 × 10^4) were incubated with PLU in a 100 μL volume. After 24 h, the anticancer potentiality was estimated.

4T1 cells [4] = assay: in vitro; assay type: cell-based, mouse; conditions: 10 μM PLU, 24 h, 4T1 cells
Protocol: as §2

T3 sequence (P06204 whole entry): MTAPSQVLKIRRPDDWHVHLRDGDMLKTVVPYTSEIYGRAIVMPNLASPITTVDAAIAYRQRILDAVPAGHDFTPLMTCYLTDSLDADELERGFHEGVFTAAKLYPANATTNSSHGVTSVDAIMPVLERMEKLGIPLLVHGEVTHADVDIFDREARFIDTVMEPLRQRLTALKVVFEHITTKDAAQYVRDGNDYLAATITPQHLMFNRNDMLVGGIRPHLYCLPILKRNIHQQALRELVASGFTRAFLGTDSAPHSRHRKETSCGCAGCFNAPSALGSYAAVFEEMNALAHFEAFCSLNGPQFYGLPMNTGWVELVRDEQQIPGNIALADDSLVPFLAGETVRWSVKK
T1 sequence (A6T7D6 whole entry): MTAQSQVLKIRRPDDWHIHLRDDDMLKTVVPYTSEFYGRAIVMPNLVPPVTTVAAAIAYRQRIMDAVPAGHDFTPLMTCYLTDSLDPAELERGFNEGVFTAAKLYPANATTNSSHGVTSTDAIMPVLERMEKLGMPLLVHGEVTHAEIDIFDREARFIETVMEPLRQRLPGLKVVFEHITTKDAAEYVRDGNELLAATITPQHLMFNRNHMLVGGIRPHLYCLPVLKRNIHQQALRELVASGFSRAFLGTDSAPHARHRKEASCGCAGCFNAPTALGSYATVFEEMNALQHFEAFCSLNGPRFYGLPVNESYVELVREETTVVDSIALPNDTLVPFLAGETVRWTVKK

CC1=CC(=O)c2c(O)cccc2C1=O [PLU, plumbagin]
inhibition at 10 µM (4T1 cells [1]; Mus musculus, 10 μM PLU, 24 h, read-out: inhibition of cell migration): 97%
Migration rate (4T1 cells [1]; PLU 2 μM): 84%
decrease of the activity of KpDHOase (KpDHOase): 69%
decrease of the activity of huDHOase (huDHOase): 30%
Colony count (4T1 cells [2]; PLU 2 μM): 73%
suppression of proliferation and colony formation (4T1 cells [2]; pretreatment with 10 μM PLU): 98%
tumor growth in PLU-treated mice (tumor growth; animal models): significant reduction in tumor growth
side effects in PLU-treated mice (tumor growth; mouse, in vivo): no side effects
decrease of the activity of StDHOase (StDHOase): 71%
pIC50 (DHPase): 4.24
apoptosis with DNA fragmentation (4T1 cells [3]; 10 μM PLU): 100%
Apoptotic rate (4T1 cells [3]; PLU 2 μM): 8%
mortality at 24 h, 2 μM (in vitro): 8%
cell deaths (4T1 cells [4]): 100%
